Assay results from patent publication US20220079993A1, “NON-NATURALLY OCCURRING THERMOGENIC ADIPOCYTES, METHODS OF MAKING, AND METHODS OF USE THEREOF” (University of Georgia Research Foundation, Inc., priority 2019, published 2022).
Structures can show the parent of a compound that is named as a salt. Where two headings read alike, the source gives them in different places.

Assays:
Format in all cases: cell-based, human
beige adipocytes [1] = experiment: Lipolysis validation assays of primary hits at three concentrations; parameters: % of Control (1) / % of Control (2) / % of Control (3) / % of Control (4): unit of the concentration uncertain; settings: for activity at 2.2 µM / activity at 6.7 µM / activity at 20 µM / activity at 2200 µM: Homo sapiens, Adipocyte, 24 h; for activity at 2.2 µM: Conc. 2.2 µM; for activity at 6.7 µM: Conc. 6.7 µM; for activity at 20 µM: Conc. 20 µM; for activity at 2200 µM: Conc. 2.2 mM
Experimental: (§1) ADSCs were seeded at 5000 cell/cm^2 in 12-well plates, grown for 5 days and then induced to differentiate into GC for 20 days. Prior to the assay, cells were washed in DPBS twice and then incubated with DMEM with 2% fatty-acid free BSA (Santa Crus, sc-500949) and Triascin C (5 μM). Cells were treated with forskolin (20 μM) for indicated time periods and supernatant samples were collected. Lipolysis assay was performed with free glycerol reagent (Sigma, F6428-40ML), according to manufacturer instructions.
(§2) Lipolysis assays were performed after 24 hours of drug treatment by measuring free glycerol released in the 384-well format, using the procedure described above. Absorbance for each compound was normalized to untreated control samples for each plate and calculated as a percent of the control. Cut-offs for “activating” and “inhibiting” compounds were set at 2-fold. Validation assays were performed for select compounds at a range of concentration doses.
Next, lipolysis assays were performed for all 111 compounds identified in the primary screen at three different concentrations, of which twenty-four were selected for further analysis based on their newness and/or reproducibility.

UCP1 = experiment: Secondary screen, UCP1 transcript levels by qRT-PCR; settings: secondary screen of primary hits
Source text: FIG. 8A is a scheme used for high-throughput screening (HTS). FIG. 8B is a scatter-plot of glycerol release for each compound assayed (n=3889) in an HTS screen. Data are shown as the percentage of glycerol released compared to untreated beige adipocytes (% of control). FIG. 8C is a computational analysis of preliminary hits identified in the HTS using BiNChE. FIG. 8D is a plot showing the results of a secondary hit validation of primary compounds performed by evaluating levels of UCP1 transcript by qRT-PCR. Unstimulated beige cells, selected adrenergic agonists, and potential new non-adrenergic beige fat activators identified in the primary screen are shown. Transcript levels were normalized to UCP1 levels in ADSCs, n=3 for each technical 20 replicate. *P<0.0.05, **P<0.01, ***P<0.005. FIGS. 8E and 8F are bar graphs showing secondary screening of known thermogenic activators. Transcript levels of UCP1 were assayed in unstimulated ADSCs and ADSC-derived beige adipocytes and following treatment with forskolin (FSK, 20 μM), isoproterenol (1, 10 μM) (8E) and Mirabegron (1, 10 and 25 μM) (8F). Transcript levels were determined by qRT-PCR. n=3 for each independent replicate. Data are mean+/−standard deviation. *P<0.0.05, **P<0.01.
Cells were washed with DPBS, lysed directly on the plate and used for RNA isolation with the E.Z.N.A Total RNA Kit (Omega, R6834-02) according to manufacturer instructions. RNA quantitation was performed with the Biotek Synergy 2 plate reader and cDNA was synthesized using 1 ug of RNA with the iScript cDNA Synthesis Kit (Bio-Rad, 1708841). The qRT-PCR was performed on a ViiA7 Real-Time PCR System (ThermoFisher) using a TaqMan Universal PCR Master Mix (ThermoFisher, 4324020) according to manufacturer instructions with the following TaqMan primer/probe sets (UCP1, Hs01084772_m1), DIO2, Hs00988260_ml, 18S rRNA, Hs03928985_g1). Each assay was performed in triplicate and normalized to 18S rRNA and graphed as mean+/−standard deviation.
To determine if hits identified in the first-round screen activated the thermogenic program, UCP1 transcript levels were used as a readout. This secondary screen incorporated adrenergic agonists, such as Mirabegron, isoproterenol and phenylephrine, and eighteen additional compounds with no reported function in thermogenic regulation (FIG. 8D, 8E, 8F). 18/25 (72%) of the lipolysis-activating compounds identified in the primary screen also activate the thermogenic program through UCP1. Twelve of these compounds have no reported adrenergic agonist activity and could potentially operate through different signaling mechanisms (FIG. 8D and Table 9).

beige adipocytes [2] = experiment: High-throughput primary screen, lipolysis assay (glycerol release), 384-well; settings: 20 μM, 24 hours; cut-offs at 2-fold
Experimental: as §1, with “Prior to the assay, cells were washed in DPBS twice and then incubated with DMEM with 2% fatty-acid free BSA (Santa Crus, sc-500949) and Triascin C (5 μM).” left out
ADSCs were plated in 384-well plates at a density of 5000 cell/cm2 and grown to confluency over ˜4 days. Cells were then differentiated to beige adipocytes using B-8 medium for 21 days. All cell culture and incubations in the 384-well format were done at 37° C. and 5% CO2. […] The use of FDA-approved drugs may allow for re-purposing for therapeutic use.
as §2

Row | Compound | % of Control (1) (beige adipocytes [1]; Conc. 2.2 (unit uncertain)) | % of Control (2) (beige adipocytes [1]; Conc. 2.2 (unit uncertain)) | % of Control (3) (beige adipocytes [1]; Conc. 2.2 (unit uncertain)) | % of Control (4) (beige adipocytes [1]; Conc. 2.2 (unit uncertain)) | % of Control (1) (beige adipocytes [1]; Conc. 6.7 (unit uncertain)) | % of Control (2) (beige adipocytes [1]; Conc. 6.7 (unit uncertain)) | % of Control (3) (beige adipocytes [1]; Conc. 6.7 (unit uncertain)) | Activation of the thermogenic program (UCP1 transcript), in words (UCP1) | activity at 2.2 µM (beige adipocytes [1]; read-out: % of Control (2)) [%] | activity at 2.2 µM (beige adipocytes [1]; read-out: % of Control (4)) [%] | activity at 6.7 µM (beige adipocytes [1]; read-out: % of Control (1)) [%] | activity at 6.7 µM (beige adipocytes [1]; read-out: % of Control (2)) [%] | activity at 6.7 µM (beige adipocytes [1]; read-out: % of Control (3)) [%] | activity at 6.7 µM (beige adipocytes [1]; read-out: % of Control (4)) [%] | activity at 20 µM (beige adipocytes [1]; read-out: % of Control (1)) [%] | activity at 20 µM (beige adipocytes [1]; read-out: % of Control (2)) [%] | activity at 20 µM (beige adipocytes [1]; read-out: % of Control (3)) [%] | activity at 20 µM (beige adipocytes [1]; read-out: % of Control (4)) [%] | activity at 2200 µM (beige adipocytes [1]; read-out: % of Control (1)) [%] | activity at 2200 µM (beige adipocytes [1]; read-out: % of Control (3)) [%] | further results
1 | CC1(C)C(=O)N(CCN2CCC(C(=O)c3ccc(F)cc3)CC2)c2ccccc21 [LY-310, 762] | 179.4 % of Control | 180.24 % of Control | 180.44 % of Control | 143.79 % of Control | 179.76 % of Control | 199.88 % of Control | 222.09 % of Control | activators in both rounds of screening |  |  |  |  |  |  |  |  |  |  |  |  | % of Control (4) (beige adipocytes [1]; Conc. 6.7 (unit uncertain)): 289.77 % of Control; % of Control (1) (beige adipocytes [1]; Conc. 20 (unit uncertain)): 264.29 % of Control; % of Control (2) (beige adipocytes [1]; Conc. 20 (unit uncertain)): 223.06 % of Control; % of Control (3) (beige adipocytes [1]; Conc. 20 (unit uncertain)): 225.27 % of Control; % of Control (4) (beige adipocytes [1]; Conc. 20 (unit uncertain)): 201.38 % of Control
2 | Cc1cc(C)c(/C=C2\C(=O)Nc3ccccc32)[nH]1 [SU 5416] |  |  |  |  |  |  |  | activators in both rounds of screening | 379 | 232 | 349 | 366 | 251 | 238 | 283 | 267 | 233 | 246 | 281 | 214 | 
3 | COc1ccc(-c2cc3c(C)nc(N)nc3n([C@H]3CC[C@H](OCCO)CC3)c2=O)cn1 [PF-04691502] | 171.55 % of Control | 138.35 % of Control | 232.86 % of Control | 105.98 % of Control | 257.98 % of Control | 216.59 % of Control | 225.05 % of Control | activators in both rounds of screening |  |  |  |  |  |  |  |  |  |  |  |  | % of Control (4) (beige adipocytes [1]; Conc. 6.7 (unit uncertain)): 155.98 % of Control; % of Control (1) (beige adipocytes [1]; Conc. 20 (unit uncertain)): 304.52 % of Control; % of Control (2) (beige adipocytes [1]; Conc. 20 (unit uncertain)): 224.71 % of Control; % of Control (3) (beige adipocytes [1]; Conc. 20 (unit uncertain)): 171.76 % of Control; % of Control (4) (beige adipocytes [1]; Conc. 20 (unit uncertain)): 302.07 % of Control
4 | CC[C@@H]1C(=O)OC[C@@H]1Cc1cncn1C [Pilocarpine nitrate] |  |  |  |  |  |  |  | activators in both rounds of screening | 135 | 89.8 | 220 | 260 | 167 | 84.2 | 200 | 290 | 230 | 181 | 109 | 176 | 
5 | O=C1CN2Cc3c(ccc(Cl)c3Cl)N=C2N1 [Anagrelide HCl] |  |  |  |  |  |  |  | efficacy in beige cell activation | 146 | 144 | 195 | 268 | 191 | 156 | 196 | 183 | 212 | 161 | 125 | 124 | 
6 | Cc1ccc([N+](=O)[O-])cc1S(=O)(=O)N(C)/N=C/c1cnc2ccc(Br)cn12 [PIK-75] | 197.74 % of Control | 134.71 % of Control | 183.08 % of Control | 136.9 % of Control | 280.95 % of Control | 197.53 % of Control | 165.05 % of Control | activators in both rounds of screening |  |  |  |  |  |  |  |  |  |  |  |  | % of Control (4) (beige adipocytes [1]; Conc. 6.7 (unit uncertain)): 207.93 % of Control; % of Control (1) (beige adipocytes [1]; Conc. 20 (unit uncertain)): 158.45 % of Control; % of Control (2) (beige adipocytes [1]; Conc. 20 (unit uncertain)): 244.82 % of Control; % of Control (3) (beige adipocytes [1]; Conc. 20 (unit uncertain)): 198.79 % of Control; % of Control (4) (beige adipocytes [1]; Conc. 20 (unit uncertain)): 233.79 % of Control
7 | CC(C)NCC(O)c1ccc(O)c(O)c1 (stereo not drawn) [Isoproterenol HCl] |  |  |  |  |  |  |  |  | 272 | 251 | 284 | 294 | 241 | 236 | 289 | 268 | 252 | 237 | 282 | 236 | Outcome in the primary screen (glycerol release), in words (beige adipocytes [2]): identified as primary hits
8 | COc1cc2c(cc1OC)-c1c/c(=N\c3c(C)cc(C)cc3C)n(C)c(=O)n1CC2 [Trequinsin HCl] |  |  |  |  |  |  |  | efficacy in beige cell activation | 251 | 244 | 271 | 264 | 232 | 215 | 284 | 292 | 256 | 248 | 240 | 188 | 
9 | Cc1ccccc1N1CCN(S(=O)(=O)C[C@]23CC[C@H](C[C@@H]2NC(=O)[C@@H](N)CCS(C)(=O)=O)C3(C)C)CC1 [L-368, 899] | 196.9 % of Control | 128 % of Control | 118.57 % of Control | 91.72 % of Control | 185.48 % of Control | 151.88 % of Control | 130.11 % of Control | activators in both rounds of screening |  |  |  |  |  |  |  |  |  |  |  |  | % of Control (4) (beige adipocytes [1]; Conc. 6.7 (unit uncertain)): 148.51 % of Control; % of Control (1) (beige adipocytes [1]; Conc. 20 (unit uncertain)): 143.81 % of Control; % of Control (2) (beige adipocytes [1]; Conc. 20 (unit uncertain)): 179.29 % of Control; % of Control (3) (beige adipocytes [1]; Conc. 20 (unit uncertain)): 192.97 % of Control; % of Control (4) (beige adipocytes [1]; Conc. 20 (unit uncertain)): 166.21 % of Control
